Reference: US6638973B2, “Taxane formulations” (FSU Research Foundation, Inc., priority 2000, dated 2003)
Like-named read-outs stand apart in the source and are kept apart here.

System: HCT116 cells
Assay: In vitro cytotoxicity measured by the cell colony formation assay
Assay type: cell-based
Conditions: colonies counted after 7 days, read-out: IN VITRO ID 50 (nm) HCT116
Outline: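 Colony-forming survival was scored 7 days after a 72 h, 37 °C compound exposure followed by washout into fresh medium.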

[1] = HCT116 colony formation, 72 h drug incubation, Example 10, C-10 ester/C-7 hydroxy taxanes
[2] = HCT116 cells, 72 h incubation with drug, ID50 = drug concentration producing 50% inhibition of colony formation
[3] = HCT116 colony formation, 72 h drug incubation, Example 5, C-7 ester/C-10 hydroxy taxanes

**Q.** Which IC50 [1] does the source give for `CCC(=O)O[C@H]1C(=O)[C@@]2(C)C([C@H](OC(=O)c3ccccc3)[C@]3(O)C[C@H](OC(=O)[C@H](O)[C@@H](NC(=O)OCC(C)C)c4cccs4)C(C)=C1C3(C)C)[C@]1(OC(C)=O)CO[C@@H]1C[C@@H]2O` (stereo partly drawn) [Compound 3163] here?
**A.** < 1 nM

**Q.** With `CC(=O)O[C@@]12CO[C@@H]1C[C@H](OC(=O)NC(C)(C)C)[C@@]1(C)C(=O)[C@H](O)C3=C(C)[C@@H](OC(=O)[C@H](O)[C@@H](NC(=O)OC(C)(C)C)c4ccco4)C[C@@](O)([C@@H](OC(=O)c4ccccc4)C12)C3(C)C` (stereo partly drawn) [Compound 5454] as the compound, how does the IC50 (HCT116 cells, 72 h drug incubation, ID50 = drug concentration producing 50% inhibition of colony formation) read?
**A.** < 10 nM

**Q.** For `CCOC(=O)OC1C(=O)C2(C)C(O)CC3OCC3(OC(C)=O)C2C(OC(=O)c2ccccc2)C2(O)CC(OC(=O)C(O)C(NC(=O)OC(C)(C)C)c3cccs3)C(C)=C1C2(C)C` (stereo not drawn) [Compound 1755], which IC50 [2] is on record?
**A.** < 1 nM

**Q.** For `CCCC(=O)O[C@H]1C(=O)[C@@]2(C)C([C@H](OC(=O)c3ccccc3)[C@]3(O)C[C@H](OC(=O)[C@H](O)[C@H](C=C(C)C)NC(=O)OC(C)(C)C)C(C)=C1C3(C)C)[C@]1(OC(C)=O)CO[C@@H]1C[C@@H]2O` (stereo partly drawn) [Compound 0947], which IC50 [1] is on record?
**A.** < 1 nM

**Q.** Which IC50 [2] does the source give for `COC(=O)O[C@H]1C(=O)[C@@]2(C)C([C@H](OC(=O)c3ccccc3)[C@]3(O)C[C@H](OC(=O)[C@H](O)[C@@H](NC(=O)OC(C)(C)C)C(C)C)C(C)=C1C3(C)C)[C@]1(OC(C)=O)CO[C@@H]1C[C@@H]2O` (stereo partly drawn) [Compound 2060] here?
**A.** < 10 nM

**Q.** For `CC(=O)O[C@@]12CO[C@@H]1C[C@H](O)[C@@]1(C)C(=O)[C@H](OC(=O)C3CC3)C3=C(C)[C@@H](OC(=O)[C@H](O)[C@@H](NC(=O)c4ccco4)c4cccs4)C[C@@](O)([C@@H](OC(=O)c4ccccc4)C12)C3(C)C` (stereo partly drawn) [Compound 3297], which IC50 [1] is on record?
**A.** < 1 nM

**Q.** For `CCCC(=O)O[C@H]1C[C@H]2OC[C@@]2(OC(C)=O)C2[C@H](OC(=O)c3ccccc3)[C@]3(O)C[C@H](OC(=O)[C@H](O)[C@@H](NC(=O)OC(C)(C)CC)c4ccco4)C(C)=C([C@@H](O)C(=O)[C@@]21C)C3(C)C` (stereo partly drawn) [Compound 6272], which IC50 [3] is on record?
**A.** < 1 nM

**Q.** For `CC(=O)O[C@@]12CO[C@@H]1C[C@H](O)[C@@]1(C)C(=O)[C@H](OC(=O)C3CC3)C3=C(C)[C@@H](OC(=O)[C@H](O)[C@@H](NC(=O)OC(C)(C)C)C4CC4)C[C@@](O)([C@@H](OC(=O)c4ccccc4)C12)C3(C)C` (stereo partly drawn) [Compound 0860], which IC50 [1] is on record?
**A.** < 1 nM

**Q.** `CC(=O)OC12COC1CC(O)C1(C)C(=O)C(OC(=O)c3ccco3)C3=C(C)C(OC(=O)C(O)C(C=C(C)C)NC(=O)OC(C)(C)C)CC(O)(C(OC(=O)c4ccccc4)C21)C3(C)C` (stereo not drawn) [Compound 2101] was tested. Which IC50 [1] did it give?
**A.** < 1 nM

**Q.** Which IC50 (Homo sapiens, HCT-116, HCT116 colony formation, 72 h drug incubation, Example 5, C-7 ester/C-10 hydroxy taxanes) does the source give for `CC(=O)O[C@@]12CO[C@@H]1C[C@H](O)[C@@]1(C)C(=O)[C@H](O)C3=C(C)[C@@H](OC(=O)[C@H](O)[C@@H](NC(=O)OC(C)(C)C)c4ccccc4)C[C@@](O)([C@@H](OC(=O)c4ccccc4)[C@H]21)C3(C)C` [docetaxel, reference compound] here?
**A.** 0.6 nM

**Q.** With `CC(=O)O[C@@]12CO[C@@H]1C[C@H](OC(=O)C(C)C)[C@@]1(C)C(=O)[C@H](O)C3=C(C)[C@@H](OC(=O)[C@H](O)[C@@H](NC(=O)C(C)C)c4ccco4)C[C@@](O)([C@@H](OC(=O)c4ccccc4)C12)C3(C)C` (stereo partly drawn) [Compound 6121] as the compound, how does the IC50 [3] read?
**A.** < 10 nM

**Q.** How did the IC50 (HCT116 cells, colony formation, 72 h incubation with drug, ID50 = drug concentration producing 50% inhibition of colony formation) turn out when `CCNC(=O)O[C@H]1C(=O)[C@@]2(C)C([C@H](OC(=O)c3ccccc3)[C@]3(O)C[C@H](OC(=O)[C@H](O)[C@@H](NC(=O)OC(C)(C)C)C(C)C)C(C)=C1C3(C)C)[C@]1(OC(C)=O)CO[C@@H]1C[C@@H]2O` (stereo partly drawn) [Compound 2633] was run?
**A.** < 10 nM

**Q.** For `CCOC(=O)O[C@H]1C(=O)[C@@]2(C)C([C@H](OC(=O)c3ccccc3)[C@]3(O)C[C@H](OC(=O)[C@H](O)[C@@H](NC(=O)C(C)C)c4ccco4)C(C)=C1C3(C)C)[C@]1(OC(C)=O)CO[C@@H]1C[C@@H]2O` (stereo partly drawn) [Compound 6466], which IC50 [2] is on record?
**A.** < 10 nM

**Q.** How did the IC50 [2] turn out when `CCOC(=O)O[C@H]1C[C@H]2OC[C@@]2(OC(C)=O)C2[C@H](OC(=O)c3ccccc3)[C@]3(O)C[C@H](OC(=O)[C@H](O)[C@H](C=C(C)C)NC(=O)OCC(C)C)C(C)=C([C@@H](O)C(=O)[C@@]21C)C3(C)C` (stereo partly drawn) [Compound 4688] was run?
**A.** < 10 nM

**Q.** For `C/C=C/C(=O)N[C@@H](c1cccs1)[C@@H](O)C(=O)O[C@H]1C[C@@]2(O)[C@@H](OC(=O)c3ccccc3)C3[C@](C)(C(=O)[C@H](O)C(=C1C)C2(C)C)[C@@H](OC(=O)OCC)C[C@H]1OC[C@@]31OC(C)=O` (stereo partly drawn) [Compound 4855], which IC50 [2] is on record?
**A.** < 1 nM

**Q.** Which IC50 [2] does the source give for `CC=CC(=O)NC(c1ccco1)C(O)C(=O)OC1CC2(O)C(OC(=O)c3ccccc3)C3C4(OC(C)=O)COC4CC(O)C3(C)C(=O)C(OC(=O)OCC)C(=C1C)C2(C)C` (stereo not drawn) [Compound 4000] here?
**A.** < 1 nM

**Q.** Which IC50 [1] does the source give for `CCC(=O)O[C@H]1C(=O)[C@@]2(C)C([C@H](OC(=O)c3ccccc3)[C@]3(O)C[C@H](OC(=O)[C@H](O)[C@@H](NC(=O)OC(C)(C)C)C4CC4)C(C)=C1C3(C)C)[C@]1(OC(C)=O)CO[C@@H]1C[C@@H]2O` (stereo partly drawn) [Compound 0578] here?
**A.** < 1 nM

**Q.** With `CCOC(=O)N[C@@H](c1ccco1)[C@@H](O)C(=O)O[C@H]1C[C@@]2(O)[C@@H](OC(=O)c3ccccc3)C3[C@](C)(C(=O)[C@H](OC(=O)C4CC4)C(=C1C)C2(C)C)[C@@H](O)C[C@H]1OC[C@@]31OC(C)=O` (stereo partly drawn) [Compound 3677] as the compound, how does the IC50 [1] read?
**A.** < 1 nM

**Q.** How did the IC50 [2] turn out when `CCOC(=O)O[C@H]1C[C@H]2OC[C@@]2(OC(C)=O)C2[C@H](OC(=O)c3ccccc3)[C@]3(O)C[C@H](OC(=O)[C@H](O)[C@@H](NC(=O)c4cccs4)c4cccs4)C(C)=C([C@@H](O)C(=O)[C@@]21C)C3(C)C` (stereo partly drawn) [Compound 4455] was run?
**A.** < 1 nM

**Q.** Which IC50 [1] does the source give for `CCC(=O)O[C@H]1C(=O)[C@@]2(C)C([C@H](OC(=O)c3ccccc3)[C@]3(O)C[C@H](OC(=O)[C@H](O)[C@@H](NC(=O)OC(C)(C)C)c4ccccc4)C(C)=C1C3(C)C)[C@]1(OC(C)=O)CO[C@@H]1C[C@@H]2O` (stereo partly drawn) [Compound 0611] here?
**A.** < 10 nM

**Q.** For `CC(=O)O[C@@]12CO[C@@H]1C[C@H](OC(=O)OCc1ccccc1)[C@@]1(C)C(=O)[C@H](O)C3=C(C)[C@@H](OC(=O)[C@H](O)[C@@H](NC(=O)OC(C)(C)C)c4ccco4)C[C@@](O)([C@@H](OC(=O)c4ccccc4)C12)C3(C)C` (stereo partly drawn) [Compound 5433], which IC50 [2] is on record?
**A.** < 1 nM

**Q.** How did the IC50 [2] turn out when `CCOC(=O)O[C@H]1C(=O)[C@@]2(C)C([C@H](OC(=O)c3ccccc3)[C@]3(O)C[C@H](OC(=O)[C@H](O)[C@@H](NC(=O)c4cccs4)c4cccs4)C(C)=C1C3(C)C)[C@]1(OC(C)=O)CO[C@@H]1C[C@@H]2O` (stereo partly drawn) [Compound 3020] was run?
**A.** < 1 nM

**Q.** For `C/C=C/C(=O)O[C@H]1C(=O)[C@@]2(C)C([C@H](OC(=O)c3ccccc3)[C@]3(O)C[C@H](OC(=O)[C@H](O)[C@@H](NC(=O)OC(C)(C)C)c4ccsc4)C(C)=C1C3(C)C)[C@]1(OC(C)=O)CO[C@@H]1C[C@@H]2O` (stereo partly drawn) [Compound 2408], which IC50 [1] is on record?
**A.** < 1 nM

**Q.** Which IC50 [1] does the source give for `CC(=O)O[C@@]12CO[C@@H]1C[C@H](O)[C@@]1(C)C(=O)[C@H](OC(=O)C3CC3)C3=C(C)[C@@H](OC(=O)[C@H](O)[C@@H](NC(=O)OC(C)(C)C)c4cccs4)C[C@@](O)([C@@H](OC(=O)c4ccccc4)C12)C3(C)C` (stereo partly drawn) [Compound 0854] here?
**A.** < 1 nM

**Q.** `CC(=O)OC12COC1CC(O)C1(C)C(=O)C(OC(=O)c3ccco3)C3=C(C)C(OC(=O)C(O)C(NC(=O)OC(C)(C)C)c4ccccn4)CC(O)(C(OC(=O)c4ccccc4)C21)C3(C)C` (stereo not drawn) [Compound 2111] was tested. Which IC50 [1] did it give?
**A.** < 1 nM

**Q.** With `C/C=C/C(=O)N[C@@H](c1ccco1)[C@@H](O)C(=O)O[C@H]1C[C@@]2(O)[C@@H](OC(=O)c3ccccc3)C3[C@](C)(C(=O)[C@H](O)C(=C1C)C2(C)C)[C@@H](OC(=O)CC)C[C@H]1OC[C@@]31OC(C)=O` (stereo partly drawn) [Compound 3708] as the compound, how does the IC50 [3] read?
**A.** < 1 nM

**Q.** How did the IC50 [3] turn out when `CCC(=O)O[C@H]1C[C@H]2OC[C@@]2(OC(C)=O)C2[C@H](OC(=O)c3ccccc3)[C@]3(O)C[C@H](OC(=O)[C@H](O)[C@@H](NC(=O)OC(C)C)c4cccs4)C(C)=C([C@@H](O)C(=O)[C@@]21C)C3(C)C` (stereo partly drawn) [Compound 3082] was run?
**A.** < 1 nM

**Q.** With `CCCC(=O)O[C@H]1C(=O)[C@@]2(C)C([C@H](OC(=O)c3ccccc3)[C@]3(O)C[C@H](OC(=O)[C@H](O)[C@@H](NC(=O)OC(C)(C)C)c4ccsc4)C(C)=C1C3(C)C)[C@]1(OC(C)=O)CO[C@@H]1C[C@@H]2O` (stereo partly drawn) [Compound 1011] as the compound, how does the IC50 [1] read?
**A.** < 1 nM

**Q.** With `C/C=C/C(=O)O[C@H]1C(=O)[C@@]2(C)C([C@H](OC(=O)c3ccccc3)[C@]3(O)C[C@H](OC(=O)[C@H](O)[C@@H](NC(=O)OC(C)(C)C)C4CCC4)C(C)=C1C3(C)C)[C@]1(OC(C)=O)CO[C@@H]1C[C@@H]2O` (stereo partly drawn) [Compound 2424] as the compound, how does the IC50 [1] read?
**A.** < 10 nM

**Q.** Which IC50 [1] does the source give for `CC(=O)OC12COC1CC(O)C1(C)C(=O)C(OC(=O)c3ccco3)C3=C(C)C(OC(=O)C(O)C(NC(=O)OC(C)(C)C)c4ccsc4)CC(O)(C(OC(=O)c4ccccc4)C21)C3(C)C` (stereo not drawn) [Compound 2173] here?
**A.** < 1 nM

**Q.** How did the IC50 [1] turn out when `CC(=O)O[C@@]12CO[C@@H]1C[C@H](O)[C@@]1(C)C(=O)[C@H](OC(=O)C3CC3)C3=C(C)[C@@H](OC(=O)[C@H](O)[C@@H](NC(=O)OC(C)C)c4ccco4)C[C@@](O)([C@@H](OC(=O)c4ccccc4)C12)C3(C)C` (stereo partly drawn) [Compound 3853] was run?
**A.** < 1 nM

**Q.** How did the IC50 [1] turn out when `CCCC(=O)O[C@H]1C(=O)[C@@]2(C)C([C@H](OC(=O)c3ccccc3)[C@]3(O)C[C@H](OC(=O)[C@H](O)[C@@H](NC(=O)OC(C)(C)C)c4cccs4)C(C)=C1C3(C)C)[C@]1(OC(C)=O)CO[C@@H]1C[C@@H]2O` (stereo partly drawn) [Compound 1003] was run?
**A.** < 1 nM

**Q.** For `COC(=O)O[C@H]1C[C@H]2OC[C@@]2(OC(C)=O)C2[C@H](OC(=O)c3ccccc3)[C@]3(O)C[C@H](OC(=O)[C@H](O)[C@@H](NC(=O)OCC(C)C)c4cccs4)C(C)=C([C@@H](O)C(=O)[C@@]21C)C3(C)C` (stereo partly drawn) [Compound 4355], which IC50 [2] is on record?
**A.** < 1 nM
